In assay [1] the test system is BMDC (CD11c positive cells). The assay is described as follows: DQ-OVA uptake and processing by BMDC, flow cytometry. It is filed as cell-based, mouse. The procedure: In order to determine the effects of cationic lipids on antigen uptake and processing by dendritic cells ex-vivo, a fluorescent ovalbumin protein called DQ-OVA was used. DQ-OVA is non-fluorescent when intact, but emits both red and green fluorescence when the protein is degraded. BMDC were incubated at 37° C. or 4° C. for 1 hr with DQ-OVA alone, or DQ-OVA mixed with different concentrations of the cationic lipid DOTAP. The cells were then washed, fixed, and stained with fluorescent antibodies to CD11c, a marker for dendritic cells. Cells were then analyzed on an LSRII flow cytometer in both red and green fluorescent channels.
This represents the well-known mannose receptor mediated uptake of OVA by DC. […] Graphical representation of the fluorescent uptake of DQ-OVA into BMDC measured by flow cytometry.
This uptake and processing was inhibited at 4° C. confirming that active cytoskeletal rearrangements are required for this type of uptake. […] The effect of R-DOTAP was concentration dependent with 50 uM showing the greatest effect. To determine if the R-DOTAP enhancement of protein uptake is cell dependent, a mouse epithelial cell line was incubated with DQ-OVA under identical conditions as the BMDC. […] Further, they indicate that this enhancement is selective for dendritic cells and not other, non-antigen presenting cell types.
In order to determine whether lipid adjuvants could mediate the same effect as R-DOTAP, BMDC were incubated with DQ-OVA in media alone or with R-DOTAP as described for FIG. 1. In addition, BMDC were incubated under identical conditions with the potent lipid adjuvant lipopolysaccharide (LPS). Mouse bone marrow DC were incubated in the presence of fluorescent DQ-OVA for one hour at either 37° C. or 4° C./azide in the presence of 25 μM DOTAP nanoparticles, 10 μg/ml LPS or media alone, and analyzed by flow cytometry. […] Monophorphoryl lipid-A (MPL) is a lower toxicity derivative of LPS that is now an FDA approved adjuvant in several vaccines.

Another assay relates to popliteal lymph nodes. The assay is described as follows: Influx of T-cells and total lymphocytes into draining lymph nodes after foot pad injection. Format: in vivo, mice. As for the experimental part:
12 mM R-DOTAP or sucrose as control were injected into the right and eft foot pad respectively of mice and the influx of T-cells and total lymphocytes into the draining lymph nodes were quantified by flow cytometry. In this experiment, 15 hours after vaccination the popliteal lymph nodes were removed and analysis performed. […] Five mice were used per study.

Another assay deals with THP-1 cells. The assay is described as follows: DQ-OVA uptake in human monocyte cell line, confocal microscopy and flow cytometry. Conditions: DQ-OVA 10 μg/ml, R-DOTAP 25 μg/ml, 1 h at 37° C. Format: cell-based. The procedure: To determine the effect of cationic lipids on human cells, a human monocyte cell line, THP-1 was used to assess DQ-OVA uptake ex-vivo. THP-1 is representative of human blood derived monocyte cells, the same cells that are used to produce DC from patients in ex vivo DC therapy approaches. THP-1 cells were incubated with DQ-OVA (10 μg/ml) in the presence (A, B) or absence (C, D) of R-DOTAP (25 μg/ml) for 1 h at 37° C. The same cell was imaged using a laser scanning confocal microscope and quantitated by measuring green versus red fluorescence by flow cytometry. […] Another striking observation from FIGS. 6A and B, is the accumulation of processed OVA in endocytic vesicles. It is well known that proteins in endocytic vesicles are efficiently incorporated into MHC class II molecules for stimulating CD4 T cells or shuttled into the cross-presentation pathway for presentation on MHC class I to CD8 T cells. Thus, cationic lipids facilitate protein uptake in a manner which maximally optimizes presentation of antigen onto both MHC class I and class II molecules, resulting in maximal stimulation of CD8 and CD4 T cells respectively.
Background: A flow cytometer gives signals particle by particle.

Assay [2] relates to HPV16-specific CD8+ T-cells. The assay can be described thus: IFN-gamma ELISPOT of splenocytes after vaccination with KF18 HPV peptide formulations. It is filed as in vivo, C57 black mice. Conditions: vaccinated Day 0 and Day 7, sacrificed Day 14. The procedure:
C57 black mice were vaccinated with various formulations: […]
Group 1: KF18 HPV peptide ([…]) (SEQ ID NO: 4)
Group 2: KF18 HPV peptide+R-DOTAP liposomes
Group 3: KF18 HPV peptide+S-DOTAP liposomes
Group 4: KF18 peptide+MPL/Alum adjuvant
5 mice per group were injected with the various formulations. The mice were vaccinated on Day 0 and Day 7 and sacrificed on Day 14. The splenocytes were removed and ELISPOT studies performed. The splenocytes were stimulated with the peptide […] (RF9) (SEQ ID NO: 5), the HPV16 CD8+ T-cell epitope peptide recognized by the C57 mice. […] An additional example of this effect is observed with the cationic lipid DDA. […] However, it has been reported that in order to induce strong antigen-specific T-cell responses that DDA is used in combination with strong adjuvants (Brandt L. et al, ESAT-6 Subunit Vaccination against Mycobacterium tuberculosis, Infect Immun. 2000 February; 68(2): 791-795).

Take `CCCCCCCC/C=C\CCCCCCCC(=O)OCC(C[N+](C)(C)C)OC(=O)CCCCCCC/C=C\CCCCCCCC` (centres unmarked) [R-DOTAP, 1,2-dioleoyl-3-trimethylammonium propane]: the “DQ-OVA uptake at 4° C.” value in assay [1] (4° C., 1 hr) was “Significant uptake was even seen at 4 °C”. Besides, in assay [1] (37° C., 1 hr, versus DQ-OVA alone), the “DQ-OVA uptake and processing, mean green fluorescence of CD11c positive cells” value is reported as “doubling of fluorescence”. In addition, the “concentration showing the greatest effect on DQ-OVA uptake” value in assay [1] (concentration dependent effect) amounted to 50 µM. Further, the “enhancement of DQ-OVA uptake and processing compared with known adjuvants (red fluorescence)” value in assay [1] (one hour, 25 μM DOTAP nanoparticles, 10 μg/ml LPS or media alone) is “greatly enhanced”. Further, in the assay on popliteal lymph nodes (12 mM R-DOTAP in foot pad, 15 hours after vaccination, versus sucrose), the “infiltration of T-cells into the draining lymph node” value was “induced significant infiltration of T-cells into the lymph node”. Besides, in the assay with popliteal lymph nodes (5 hours, 16 hours, 3 days and 4 days), the “lymphocyte infiltration into the lymph nodes over time” value is on record as “lymphocyte infiltration into the lymph nodes was seen to increase over the 4-day period”. Also, the “DQ-OVA uptake in THP-1 cells” value in the assay with THP-1 cells is on record as “dramatically enhanced the uptake of DQ-OVA in THP-1 cells”. Also, the “HPV-specific CD8+ T-cell response (ELISPOT, RF9 stimulation)” value in assay [2] is “effective in inducing strong HPV-specific CD8+ T-cell responses”.

Source of the values: patent publication US11612652B2, “Lipids as synthetic vectors to enhance antigen processing and presentation ex-vivo in dendritic cell therapy” (PDS Biotechnology Corporation, priority 2015, dated 2023).
